Legend:
Settings in all cases: Compound concentration 10 µM
[1] = biological target: T1, Alpha-2B adrenergic receptor (Homo sapiens) (UniProt P18089)
T1 sequence (whole entry): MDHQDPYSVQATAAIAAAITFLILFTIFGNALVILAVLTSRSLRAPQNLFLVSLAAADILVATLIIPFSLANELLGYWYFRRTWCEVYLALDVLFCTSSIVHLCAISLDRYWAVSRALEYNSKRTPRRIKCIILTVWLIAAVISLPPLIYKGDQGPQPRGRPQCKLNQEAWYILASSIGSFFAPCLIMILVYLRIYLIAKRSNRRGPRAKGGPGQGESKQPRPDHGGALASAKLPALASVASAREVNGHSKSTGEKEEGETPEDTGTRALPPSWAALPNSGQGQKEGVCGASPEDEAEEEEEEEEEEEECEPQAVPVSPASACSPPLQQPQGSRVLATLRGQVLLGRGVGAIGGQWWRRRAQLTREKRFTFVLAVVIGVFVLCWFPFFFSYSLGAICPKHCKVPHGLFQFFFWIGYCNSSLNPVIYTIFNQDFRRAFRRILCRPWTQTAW
Description: PDSP Primary Binding target: ADRA2B - Compounds are tested at 10 uM concentration, plate are incubated at room temperature in the dark for 90 minutes. Reaction are stopped by vacuum filtration onto 0.3% polyethyleneimine soaked filter mats using Filtermate harvester. Scintilation cocktail is then melted onto microwave-dried filters on a hot plate and the radio activity is counted in Microbia counter.

[2] = biological target: T2, Alpha-1D adrenergic receptor (Homo sapiens) (UniProt P25100)
T2 sequence (whole entry): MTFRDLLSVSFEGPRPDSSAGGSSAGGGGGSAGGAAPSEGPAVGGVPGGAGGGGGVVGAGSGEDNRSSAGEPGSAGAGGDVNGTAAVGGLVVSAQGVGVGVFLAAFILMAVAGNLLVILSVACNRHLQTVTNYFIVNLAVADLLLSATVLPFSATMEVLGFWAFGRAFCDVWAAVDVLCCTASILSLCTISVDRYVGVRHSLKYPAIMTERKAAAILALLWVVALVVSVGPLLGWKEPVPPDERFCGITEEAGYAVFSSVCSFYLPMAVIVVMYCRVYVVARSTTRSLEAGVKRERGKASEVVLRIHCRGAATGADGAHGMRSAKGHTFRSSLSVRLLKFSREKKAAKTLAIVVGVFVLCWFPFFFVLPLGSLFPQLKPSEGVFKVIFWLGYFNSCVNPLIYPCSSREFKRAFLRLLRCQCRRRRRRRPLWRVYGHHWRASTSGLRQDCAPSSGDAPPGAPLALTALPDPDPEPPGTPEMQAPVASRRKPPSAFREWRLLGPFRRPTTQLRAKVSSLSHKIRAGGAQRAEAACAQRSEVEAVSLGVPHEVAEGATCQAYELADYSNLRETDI
Description: PDSP Primary Binding target: ADRA1D - Compounds are tested at 10 uM concentration, plate are incubated at room temperature in the dark for 90 minutes. Reaction are stopped by vacuum filtration onto 0.3% polyethyleneimine soaked filter mats using Filtermate harvester. Scintilation cocktail is then melted onto microwave-dried filters on a hot plate and the radio activity is counted in Microbia counter.

[3] = biological target: D(2) dopamine receptor (Homo sapiens) (UniProt P14416)
Description: PDSP Primary Binding target: DRD2 - Compounds are tested at 10 uM concentration, plate are incubated at room temperature in the dark for 90 minutes. Reaction are stopped by vacuum filtration onto 0.3% polyethyleneimine soaked filter mats using Filtermate harvester. Scintilation cocktail is then melted onto microwave-dried filters on a hot plate and the radio activity is counted in Microbia counter.

[4] = biological target: 5-hydroxytryptamine receptor 1B (Homo sapiens) (UniProt P28222)
Description: PDSP Primary Binding target: HTR1B - Compounds are tested at 10 uM concentration, plate are incubated at room temperature in the dark for 90 minutes. Reaction are stopped by vacuum filtration onto 0.3% polyethyleneimine soaked filter mats using Filtermate harvester. Scintilation cocktail is then melted onto microwave-dried filters on a hot plate and the radio activity is counted in Microbia counter.

[5] = biological target: 5-hydroxytryptamine receptor 1E (Homo sapiens) (UniProt P28566)
Description: PDSP Primary Binding target: HTR1E - Compounds are tested at 10 uM concentration, plate are incubated at room temperature in the dark for 90 minutes. Reaction are stopped by vacuum filtration onto 0.3% polyethyleneimine soaked filter mats using Filtermate harvester. Scintilation cocktail is then melted onto microwave-dried filters on a hot plate and the radio activity is counted in Microbia counter.

[6] = biological target: T3, Muscarinic acetylcholine receptor M5 (Homo sapiens) (UniProt P08912)
T3 sequence (whole entry): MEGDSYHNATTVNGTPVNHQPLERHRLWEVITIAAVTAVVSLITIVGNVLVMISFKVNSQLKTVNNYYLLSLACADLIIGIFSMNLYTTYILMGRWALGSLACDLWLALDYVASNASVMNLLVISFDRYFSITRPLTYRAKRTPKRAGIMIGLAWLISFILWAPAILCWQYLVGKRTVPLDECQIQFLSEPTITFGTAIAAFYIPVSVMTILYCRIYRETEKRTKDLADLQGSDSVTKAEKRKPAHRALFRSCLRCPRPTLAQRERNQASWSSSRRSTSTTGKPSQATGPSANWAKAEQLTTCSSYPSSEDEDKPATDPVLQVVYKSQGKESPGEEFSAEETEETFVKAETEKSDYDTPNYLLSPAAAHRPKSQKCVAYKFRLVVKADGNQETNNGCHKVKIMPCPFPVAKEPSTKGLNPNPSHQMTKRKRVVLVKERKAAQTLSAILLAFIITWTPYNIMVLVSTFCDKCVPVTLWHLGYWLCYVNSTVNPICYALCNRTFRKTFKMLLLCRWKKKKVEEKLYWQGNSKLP
Description: PDSP Primary Binding target: CHRM5 - Compounds are tested at 10 uM concentration, plate are incubated at room temperature in the dark for 90 minutes. Reaction are stopped by vacuum filtration onto 0.3% polyethyleneimine soaked filter mats using Filtermate harvester. Scintilation cocktail is then melted onto microwave-dried filters on a hot plate and the radio activity is counted in Microbia counter.

[7] = biological target: T4, Alpha-2A adrenergic receptor (Homo sapiens) (UniProt P08913)
T4 sequence (whole entry): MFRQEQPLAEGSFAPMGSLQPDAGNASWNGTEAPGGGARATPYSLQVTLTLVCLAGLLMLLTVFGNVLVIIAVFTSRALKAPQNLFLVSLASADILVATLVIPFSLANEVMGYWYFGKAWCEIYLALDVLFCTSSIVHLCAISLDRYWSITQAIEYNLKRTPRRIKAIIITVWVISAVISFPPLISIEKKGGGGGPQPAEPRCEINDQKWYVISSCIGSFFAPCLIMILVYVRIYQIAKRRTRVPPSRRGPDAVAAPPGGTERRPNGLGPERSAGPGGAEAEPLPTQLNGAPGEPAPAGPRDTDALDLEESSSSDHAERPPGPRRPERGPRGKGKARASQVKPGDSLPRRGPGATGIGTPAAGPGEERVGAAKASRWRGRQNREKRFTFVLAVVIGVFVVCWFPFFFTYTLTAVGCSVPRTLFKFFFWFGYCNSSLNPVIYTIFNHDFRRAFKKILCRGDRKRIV
Description: PDSP Primary Binding target: ADRA2A - Compounds are tested at 10 uM concentration, plate are incubated at room temperature in the dark for 90 minutes. Reaction are stopped by vacuum filtration onto 0.3% polyethyleneimine soaked filter mats using Filtermate harvester. Scintilation cocktail is then melted onto microwave-dried filters on a hot plate and the radio activity is counted in Microbia counter.

[8] = biological target: Beta-2 adrenergic receptor (Homo sapiens) (UniProt P07550)
Description: PDSP Primary Binding target: ADRB2 - Compounds are tested at 10 uM concentration, plate are incubated at room temperature in the dark for 90 minutes. Reaction are stopped by vacuum filtration onto 0.3% polyethyleneimine soaked filter mats using Filtermate harvester. Scintilation cocktail is then melted onto microwave-dried filters on a hot plate and the radio activity is counted in Microbia counter.

[9] = biological target: T5, Alpha-2C adrenergic receptor (Homo sapiens) (UniProt P18825)
T5 sequence (whole entry): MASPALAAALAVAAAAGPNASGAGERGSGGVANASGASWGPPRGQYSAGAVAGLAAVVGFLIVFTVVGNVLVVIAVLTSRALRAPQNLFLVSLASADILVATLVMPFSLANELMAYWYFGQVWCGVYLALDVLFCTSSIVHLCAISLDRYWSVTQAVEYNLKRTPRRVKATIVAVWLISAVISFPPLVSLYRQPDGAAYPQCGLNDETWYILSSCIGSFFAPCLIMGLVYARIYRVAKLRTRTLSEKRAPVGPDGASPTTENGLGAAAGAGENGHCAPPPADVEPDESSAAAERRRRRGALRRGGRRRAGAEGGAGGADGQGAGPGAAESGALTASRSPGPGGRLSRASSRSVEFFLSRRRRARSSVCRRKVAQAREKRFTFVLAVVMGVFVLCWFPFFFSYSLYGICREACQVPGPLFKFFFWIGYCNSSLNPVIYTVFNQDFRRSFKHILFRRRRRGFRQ
Description: PDSP Primary Binding target: ADRA2C - Compounds are tested at 10 uM concentration, plate are incubated at room temperature in the dark for 90 minutes. Reaction are stopped by vacuum filtration onto 0.3% polyethyleneimine soaked filter mats using Filtermate harvester. Scintilation cocktail is then melted onto microwave-dried filters on a hot plate and the radio activity is counted in Microbia counter.

[10] = biological target: 5-hydroxytryptamine receptor 7 (Homo sapiens) (UniProt P34969)
Description: PDSP Primary Binding target: HTR7 - Compounds are tested at 10 uM concentration, plate are incubated at room temperature in the dark for 90 minutes. Reaction are stopped by vacuum filtration onto 0.3% polyethyleneimine soaked filter mats using Filtermate harvester. Scintilation cocktail is then melted onto microwave-dried filters on a hot plate and the radio activity is counted in Microbia counter.

[11] = biological target: Sigma non-opioid intracellular receptor 1 (Homo sapiens) (UniProt Q99720)
Description: PDSP Primary Binding target: SIGMAR1 - Compounds are tested at 10 uM concentration, plate are incubated at room temperature in the dark for 90 minutes. Reaction are stopped by vacuum filtration onto 0.3% polyethyleneimine soaked filter mats using Filtermate harvester. Scintilation cocktail is then melted onto microwave-dried filters on a hot plate and the radio activity is counted in Microbia counter.

[12] = biological target: Sodium-dependent noradrenaline transporter (Homo sapiens) (UniProt P23975)
Sodium-dependent noradrenaline transporter (Homo sapiens), sequence (P23975 whole entry): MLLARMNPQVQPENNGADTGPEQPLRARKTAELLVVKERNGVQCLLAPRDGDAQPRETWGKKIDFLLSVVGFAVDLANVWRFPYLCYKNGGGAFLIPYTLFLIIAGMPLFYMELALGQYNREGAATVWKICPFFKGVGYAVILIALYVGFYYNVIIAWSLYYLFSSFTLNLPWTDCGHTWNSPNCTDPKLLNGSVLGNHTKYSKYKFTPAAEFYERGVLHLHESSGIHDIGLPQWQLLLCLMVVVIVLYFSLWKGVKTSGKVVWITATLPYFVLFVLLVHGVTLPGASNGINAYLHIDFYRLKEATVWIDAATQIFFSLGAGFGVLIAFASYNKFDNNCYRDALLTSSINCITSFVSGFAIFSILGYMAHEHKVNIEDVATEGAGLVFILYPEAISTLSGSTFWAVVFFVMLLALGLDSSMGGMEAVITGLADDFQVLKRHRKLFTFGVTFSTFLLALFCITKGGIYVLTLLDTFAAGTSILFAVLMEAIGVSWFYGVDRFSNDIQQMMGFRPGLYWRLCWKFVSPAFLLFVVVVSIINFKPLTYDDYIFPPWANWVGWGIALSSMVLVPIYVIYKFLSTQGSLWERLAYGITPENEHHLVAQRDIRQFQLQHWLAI
Description: PDSP Primary Binding target: SLC6A2 - Compounds are tested at 10 uM concentration, plate are incubated at room temperature in the dark for 90 minutes. Reaction are stopped by vacuum filtration onto 0.3% polyethyleneimine soaked filter mats using Filtermate harvester. Scintilation cocktail is then melted onto microwave-dried filters on a hot plate and the radio activity is counted in Microbia counter.

D(2) dopamine receptor (Homo sapiens), sequence (P14416 whole entry): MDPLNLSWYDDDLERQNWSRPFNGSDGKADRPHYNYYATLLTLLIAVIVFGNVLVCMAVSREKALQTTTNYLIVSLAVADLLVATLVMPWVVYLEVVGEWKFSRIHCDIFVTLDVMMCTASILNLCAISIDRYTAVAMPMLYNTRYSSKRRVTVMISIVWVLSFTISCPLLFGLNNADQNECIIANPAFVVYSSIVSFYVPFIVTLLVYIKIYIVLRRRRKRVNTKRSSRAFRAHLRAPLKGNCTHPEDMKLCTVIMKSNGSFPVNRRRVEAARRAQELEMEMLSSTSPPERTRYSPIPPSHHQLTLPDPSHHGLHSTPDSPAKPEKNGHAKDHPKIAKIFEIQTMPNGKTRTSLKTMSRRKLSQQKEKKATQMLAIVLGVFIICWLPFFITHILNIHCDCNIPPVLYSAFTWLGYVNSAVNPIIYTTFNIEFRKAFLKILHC
5-hydroxytryptamine receptor 1E (Homo sapiens), sequence (P28566 whole entry): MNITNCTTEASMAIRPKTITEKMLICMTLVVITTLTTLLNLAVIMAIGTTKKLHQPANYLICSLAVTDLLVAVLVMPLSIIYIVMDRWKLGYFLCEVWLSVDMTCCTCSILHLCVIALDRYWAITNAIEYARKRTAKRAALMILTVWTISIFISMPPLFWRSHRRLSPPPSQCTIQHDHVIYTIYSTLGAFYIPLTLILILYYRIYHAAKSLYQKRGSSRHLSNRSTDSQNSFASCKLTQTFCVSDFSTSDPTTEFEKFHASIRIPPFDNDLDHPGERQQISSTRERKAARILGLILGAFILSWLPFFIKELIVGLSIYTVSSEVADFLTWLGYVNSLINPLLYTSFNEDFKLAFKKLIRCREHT
Sigma non-opioid intracellular receptor 1 (Homo sapiens), sequence (Q99720 whole entry): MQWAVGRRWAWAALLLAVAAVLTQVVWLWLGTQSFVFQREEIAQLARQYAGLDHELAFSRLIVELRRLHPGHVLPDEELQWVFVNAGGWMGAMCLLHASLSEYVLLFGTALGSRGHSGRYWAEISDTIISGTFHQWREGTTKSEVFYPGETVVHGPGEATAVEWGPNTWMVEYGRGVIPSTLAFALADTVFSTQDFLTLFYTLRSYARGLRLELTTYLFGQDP
5-hydroxytryptamine receptor 7 (Homo sapiens), sequence (P34969 whole entry): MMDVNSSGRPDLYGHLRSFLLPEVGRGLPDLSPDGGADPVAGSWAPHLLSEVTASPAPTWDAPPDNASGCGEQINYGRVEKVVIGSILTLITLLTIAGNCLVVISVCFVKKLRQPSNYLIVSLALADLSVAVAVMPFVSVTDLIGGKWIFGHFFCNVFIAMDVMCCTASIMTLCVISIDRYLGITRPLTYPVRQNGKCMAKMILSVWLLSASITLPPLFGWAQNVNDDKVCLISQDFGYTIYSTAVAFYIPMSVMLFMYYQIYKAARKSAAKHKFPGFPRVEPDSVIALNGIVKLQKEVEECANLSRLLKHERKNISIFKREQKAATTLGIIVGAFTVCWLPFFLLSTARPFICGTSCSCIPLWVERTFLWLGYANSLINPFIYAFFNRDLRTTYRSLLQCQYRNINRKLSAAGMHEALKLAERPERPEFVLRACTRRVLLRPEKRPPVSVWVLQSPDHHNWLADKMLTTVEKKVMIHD
5-hydroxytryptamine receptor 1B (Homo sapiens), sequence (P28222 whole entry): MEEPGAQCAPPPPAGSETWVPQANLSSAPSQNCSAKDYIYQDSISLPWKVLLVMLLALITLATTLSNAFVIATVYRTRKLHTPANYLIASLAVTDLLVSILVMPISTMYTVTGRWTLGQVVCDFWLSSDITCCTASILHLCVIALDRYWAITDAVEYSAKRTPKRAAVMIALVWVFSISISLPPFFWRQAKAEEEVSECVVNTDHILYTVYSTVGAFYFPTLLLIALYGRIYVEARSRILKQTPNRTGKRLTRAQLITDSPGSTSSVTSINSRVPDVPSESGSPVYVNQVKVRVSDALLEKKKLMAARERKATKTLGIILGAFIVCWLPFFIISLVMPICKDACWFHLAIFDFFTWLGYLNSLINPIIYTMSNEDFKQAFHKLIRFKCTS
Beta-2 adrenergic receptor (Homo sapiens), sequence (P07550 whole entry, looked up): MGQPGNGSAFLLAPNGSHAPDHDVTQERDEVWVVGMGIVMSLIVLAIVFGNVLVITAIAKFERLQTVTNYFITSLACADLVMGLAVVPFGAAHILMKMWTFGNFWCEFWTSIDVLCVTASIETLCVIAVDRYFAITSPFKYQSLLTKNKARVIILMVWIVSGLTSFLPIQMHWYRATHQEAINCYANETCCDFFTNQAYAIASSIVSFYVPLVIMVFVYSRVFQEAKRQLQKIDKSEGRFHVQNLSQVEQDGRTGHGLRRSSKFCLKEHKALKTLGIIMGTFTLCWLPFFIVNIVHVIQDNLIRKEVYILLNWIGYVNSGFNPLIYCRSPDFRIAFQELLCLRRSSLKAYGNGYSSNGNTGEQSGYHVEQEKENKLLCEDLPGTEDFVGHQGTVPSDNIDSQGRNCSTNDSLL

Row | SMILES | inhibition [1] [%] | inhibition [2] [%] | inhibition [3] [%] | inhibition [4] [%] | inhibition [5] [%] | inhibition [6] [%] | inhibition [7] [%] | inhibition [8] [%] | inhibition [9] [%] | inhibition [10] [%] | inhibition [11] [%] | inhibition [12] [%]
1 | CN(C(=O)Cc1ccc(Cl)c(Cl)c1)C(CN1CCCC1)c1cccc(OCC(=O)O)c1 (configuration not stated) | 5.65 | 5.15 | -3.77 | 11.1 | -3.71 | 59.6 | 12.2 | -5.04 | 3.8 | -9.81 | 24.1 | –
2 | COc1ccc(C2(O)OC(=O)C(c3ccc4c(c3)OCO4)=C2Cc2cc(OC)c(OC)c(OC)c2)cc1 (configuration not stated) | -2.96 | 11 | -2.26 | 2.7 | -4.29 | 28.8 | 4.57 | – | – | 12 | 6.35 | –
3 | C[C@H](Cc1cc2c(c(C(N)=O)c1)N(CCCO)CC2)NCCOc1ccccc1OCC(F)(F)F | 69.7 | 86.5 | 55.5 | 92.3 | -4.65 | – | 84.6 | 99 | 82.5 | 83.6 | 38.9 | -2.22
4 | Nc1nc2c(c(N3CCNCC3)n1)CCC1=C2[C@@H]2CCCC[C@@H]2O1 | 31.9 | – | 25.9 | – | 34.5 | -3.04 | 4.22 | – | 30.6 | 17.8 | 86.4 | –
5 | c1ccc(N2CCN(Cc3nc4ccccc4[nH]3)CC2)nc1 | – | – | 22.3 | 6.19 | 6.29 | -1.59 | – | – | 4.37 | 33.7 | 50.5 | –
6 | COc1ccccc1CN[C@H]1C2CCN(CC2)[C@H]1C(c1ccccc1)c1ccccc1 | 3.23 | 11.1 | 9.32 | 8.03 | 5 | 56.2 | 11.1 | – | 1.59 | -6.37 | 48.5 | –
7 | CCCCCNC(=N)N/N=C/c1c[nH]c2ccc(OC)cc12 | 69 | 55.8 | 67.3 | 96.3 | 20.5 | 8.93 | 77.7 | 54.7 | 94.1 | 93.6 | 96.6 | –
8 | CCCSc1nc(N[C@@H]2C[C@H]2c2ccc(F)c(F)c2)c2nnn([C@@H]3C[C@H](OCCO)[C@@H](O)[C@H]3O)c2n1 | 41.2 | 11.3 | 29 | 19.3 | 3.9 | 10.8 | – | 5.05 | 15.4 | 16.8 | 35.4 | –
9 | CC[C@@H]1CN2C(=O)N(C)c3nc(-c4ccccc4)[nH]c3C2=N1 | -5.85 | – | – | 6.19 | 23.8 | – | -7.63 | 65.2 | -1.57 | 21.6 | 64.2 | 19.5
10 | Nc1nc(NCCc2ccc(O)cc2)nc2nc(-c3ccco3)nn12 | -1.01 | 8.13 | 40 | 27 | – | – | 19 | -3.4 | 9.88 | 13.5 | 43.4 | 44.1
11 | O=C(Cc1ccc(Cl)c(Cl)c1)N1CCCC[C@H]1CN1CCCC1 | 34.8 | 12.3 | 44.5 | 10.4 | 1.08 | – | 30.3 | 7.92 | 24.5 | 31.1 | 94.7 | 23.7
12 | Cc1cccc(NC(=O)N[C@@H]2N=C(c3ccccc3)c3ccccc3N(C)C2=O)c1 | 7.07 | – | 14.2 | 16.2 | 18.6 | – | 13.9 | -4.38 | 12.3 | 3.26 | 20.8 | 1.83
13 | N=C(N)SCCc1c[nH]cn1 | 17.9 | 8.64 | -5.28 | 8.52 | 26.2 | – | 51.5 | 6.81 | 20.8 | 19.2 | 13.1 | 11.5
14 | COc1ccc(/C=C/CCCCOc2ccc(C(=O)c3cccc(C(=O)O)c3)cc2CCC(=O)O)cc1 | 29.1 | 1.82 | 28.2 | 29.9 | 8.42 | 3.16 | – | – | 1.56 | -2.54 | 11.6 | -6.68
15 | CN1C2CCC1CC(OC(c1ccc(F)cc1)c1ccc(F)cc1)C2 (configuration not stated) | – | 91.5 | 67.8 | 27.7 | 14.3 | 94.5 | – | -6.19 | – | 92.4 | 93.6 | 102
16 | Cc1cc(C(=O)N2Cc3cnn(C)c3Nc3ccccc32)ccc1CNC(=O)N1CCC[C@H]1C(=S)N1CCCN(C)CC1 | 2.87 | – | 5.64 | 20.7 | 4.73 | 83.3 | 13.1 | -1.47 | -5.77 | 0.75 | -7.44 | –
